Data taken from patent US5004747A, “Isoquinolinones” (May & Baker Limited, priority 1988, dated 1991).

Target: T1, rat hepatic microsomal HMG CoA reductase (Rattus norvegicus, UniProt P51639)
T1 construct: rat hepatic microsomal HMG CoA reductase; from tissue; host or cells: rat liver microsomes
T1 sequence (P51639 1-887): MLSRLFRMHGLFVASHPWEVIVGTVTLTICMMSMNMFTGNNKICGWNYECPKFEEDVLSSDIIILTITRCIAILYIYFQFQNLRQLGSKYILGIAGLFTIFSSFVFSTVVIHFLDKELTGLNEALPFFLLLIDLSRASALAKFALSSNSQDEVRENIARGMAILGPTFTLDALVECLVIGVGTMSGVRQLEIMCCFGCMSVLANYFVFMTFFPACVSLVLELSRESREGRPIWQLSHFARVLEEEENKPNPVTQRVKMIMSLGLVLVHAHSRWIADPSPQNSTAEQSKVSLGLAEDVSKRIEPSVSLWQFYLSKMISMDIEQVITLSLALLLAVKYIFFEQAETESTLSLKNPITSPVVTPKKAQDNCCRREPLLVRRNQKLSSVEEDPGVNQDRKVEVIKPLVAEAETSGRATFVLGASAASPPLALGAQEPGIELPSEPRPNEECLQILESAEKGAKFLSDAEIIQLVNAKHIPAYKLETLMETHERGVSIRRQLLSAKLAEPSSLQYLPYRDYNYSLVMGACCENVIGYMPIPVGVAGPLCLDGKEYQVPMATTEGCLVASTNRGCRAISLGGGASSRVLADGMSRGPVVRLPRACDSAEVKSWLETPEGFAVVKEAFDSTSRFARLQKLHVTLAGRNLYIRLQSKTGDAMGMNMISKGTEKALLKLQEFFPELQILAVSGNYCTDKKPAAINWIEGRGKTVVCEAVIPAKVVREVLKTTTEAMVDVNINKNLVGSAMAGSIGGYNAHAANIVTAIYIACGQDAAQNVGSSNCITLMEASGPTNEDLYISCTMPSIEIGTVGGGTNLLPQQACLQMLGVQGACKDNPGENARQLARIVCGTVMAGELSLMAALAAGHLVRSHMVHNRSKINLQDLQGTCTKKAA
Experiment: inhibition of rat hepatic microsomal HMG CoA reductase activity in vitro (Table I)
Type: biochemical
Conditions: for inhibition at 20 µg/mL: 20.0 micrograms/ml; for inhibition at 0.082 µg/mL: 0.082 micrograms/ml; for inhibition at 0.25 µg/mL: 0.25 micrograms/ml; for inhibition at 0.74 µg/mL: 0.74 micrograms/ml; for inhibition at 2.22 µg/mL: 2.22 micrograms/ml; for inhibition at 6.66 µg/mL: 6.66 micrograms/ml; for inhibition at 0.0274 µg/mL: 0.0274 micrograms/ml
Source text: In the table the concentrations of the test compounds are expressed in micrograms/ml.

Compound	inhibition at 20 µg/mL	inhibition at 0.082 µg/mL	inhibition at 0.25 µg/mL	inhibition at 0.74 µg/mL	inhibition at 2.22 µg/mL	inhibition at 6.66 µg/mL	inhibition at 0.0824 µg/mL (0.0824 micrograms/ml)	inhibition at 0.24 µg/mL (0.24 micrograms/ml)	inhibition at 2 µg/mL (2.0 micrograms/ml)	inhibition at 0.0274 µg/mL
Cn1c(/C=C/C(O)CC(O)CC(=O)O)c(-c2ccccc2)c2ccccc2c1=O (centres unmarked) [BA, sodium (E)-3,5-dihydroxy-7-(2-methyl-1-oxo-4-phenyl-1,2-dihydroisoquinolin-3-yl)hept-6-enoate]	61%	–	–	–	–	–	–	–	0%	–
CC(C)c1c(/C=C/[C@@H]2C[C@@H](O)CC(=O)O2)n(C2CCCCC2)c(=O)c2ccccc12 [Z, (4R,6S)-(E)-6-(2-(2-cyclohexyl-4-isopropyl-1-oxo-1,2-dihydroisoquinolin-3-yl)ethen-1-yl)-4-hydroxy-3,4,5,6-tetrahydro-2H-pyran-2-one]	–	50%	77%	88%	96%	99%	–	–	–	–
CC(C)c1c(/C=C/[C@@H]2C[C@@H](O)CC(=O)O2)n(CC2CCCCC2)c(=O)c2ccccc12 [AB, (4R,6S)-(E)-6-(2-(2-cyclohexylmethyl-4-isopropyl-1-oxo-1,2-dihydroisoquinolin-3-yl)ethen-1-yl)-4-hydroxy-3,4,5,6-tetrahydro-2H-pyran-2-one]	–	–	–	20%	41%	66%	–	–	–	–
Cc1cc(-n2c(/C=C/[C@@H]3C[C@@H](O)CC(=O)O3)c(C(C)C)c3ccccc3c2=O)ccc1F [P, (4R,6S)-(E)-6-(2-(2-(4-fluoro-3-methylphenyl)-4-isopropyl-1-oxo-1,2-dihydroisoquinolin-3-yl)ethen-1-yl)-4-hydroxy-3,4,5,6-tetrahydro-2H-pyran-2-one]	90%	27%	39%	63%	81%	90%	–	–	–	–
COc1ccc(-n2c(/C=C/[C@@H]3C[C@@H](O)CC(=O)O3)c(C(C)C)c3ccccc3c2=O)cc1 [N, (4R,6S)-(E)-4-hydroxy-6-(2-(2-(4-methoxyphenyl)-4-isopropyl-1-oxo-1,2-dihydroisoquinolin-3-yl)ethen-1-yl)-3,4,5,6-tetrahydro-2H-pyran-2-one]	–	–	13%	34%	59%	80%	16%	–	–	–
CC(C)c1c(/C=C/[C@@H]2C[C@@H](O)CC(O)O2)n(-c2ccc(F)cc2)c(=O)c2ccccc12 (mixture of isomers) [Compound M, (2RS,4R,6S)-(E)-2,4-dihydroxy-6-[2-(2-(4-fluorophenyl)-4-isopropyl-1-oxo-1,2-dihydroisoquinolin-3-yl)ethen-1-yl]-3,4,5,6-tetrahydro-2H-pyran]	72%	27%	18%	31%	44%	56%	–	–	–	–
CC(C)n1c(/C=C/[C@@H](O)C[C@@H](O)CC(=O)O)c(-c2ccc(F)cc2)c2ccccc2c1=O [AF, sodium (3R,5S)-(E)-3,5-dihydroxy-7-(4-(4-fluorophenyl)-2-isopropyl-1-oxo-1,2-dihydroisoquinolin-3-yl)hept-6-enoate]	–	38%	65%	83%	93%	95%	–	–	–	15%
CC(C)c1c(/C=C/[C@@H](O)C[C@@H](O)CC(=O)O)n(-c2ccc(F)cc2)c(=O)c2ccccc12 [AG, sodium (3R,5S)-(E)-3,5-dihydroxy-7-(2-(4-fluorophenyl)-4-isopropyl-1-oxo-1,2-dihydroisoquinolin-3-yl)hept-6-enoate]	–	57%	74%	89%	96%	–	–	–	–	15%

Second part, led by results:

inhibition at 20 µg/mL	inhibition at 0.082 µg/mL	inhibition at 0.25 µg/mL	inhibition at 0.74 µg/mL	inhibition at 2.22 µg/mL	inhibition at 6.66 µg/mL	inhibition at 0.0824 µg/mL (0.0824 micrograms/ml)	inhibition at 0.24 µg/mL (0.24 micrograms/ml)	Compound	inhibition at 2 µg/mL (2.0 micrograms/ml)	inhibition at 0.0274 µg/mL
96%	16%	35%	61%	83%	92%	–	–	O=C1C[C@H](O)C[C@@H](/C=C/c2c(-c3ccc(F)cc3)c3ccccc3c(=O)n2CC2CC2)O1 [X, (4R,6S)-(E)-6-(2-(2-cyclopropylmethyl-4-(4-fluorophenyl)-1-oxo-1,2-dihydroisoquinolin-3-yl)ethen-1-yl)-4-hydroxy-3,4,5,6-tetrahydro-2H-pyran-2-one]	–	–
85%	–	–	10%	40%	67%	–	–	Cc1c(/C=C/[C@@H]2C[C@@H](O)CC(=O)O2)n(-c2ccc(F)cc2)c(=O)c2ccccc12 [V, (4R,6S)-(E)-6-(2-(2-(4-fluorophenyl)-4-methyl-1-oxo-1,2-dihydroisoquinolin-3-yl)ethen-1-yl)-4-hydroxy-3,4,5,6-tetrahydro-2H-pyran-2-one]	–	–
97%	21%	35%	56%	78%	91%	–	–	CC(C)c1c(/C=C/[C@@H]2C[C@@H](O)CC(=O)O2)n(-c2ccc(Cl)cc2)c(=O)c2ccccc12 [R, (4R,6S)-(E)-6-(2-(2-(4-chlorophenyl)-4-isopropyl-1-oxo-1,2-dihydroisoquinolin-3-yl)ethen-1-yl)-4-hydroxy-3,4,5,6-tetrahydro-2H-pyran-2-one]	–	–
94%	–	–	35%	62%	85%	–	11%	CCOC(=O)CC(O)CC(O)/C=C/c1c(-c2ccc(F)cc2)c2ccccc2c(=O)n1C(C)C (centres unmarked) [Compound D, ethyl (E)-3,5-dihydroxy-7-[4-(4-fluorophenyl)-2-isopropyl-1-oxo-1,2-dihydroisoquinolin-3-yl]hept-6-enoate]	–	–
–	16%	38%	62%	81%	92%	–	–	CC(C)n1c(CC[C@@H]2C[C@@H](O)CC(=O)O2)c(-c2ccc(F)cc2)c2ccccc2c1=O [AI, (4R,6R)-6-(2-(4-(4-fluorophenyl)-2-isopropyl-1-oxo-1,2-dihydroisoquinolin-3-yl)ethyl)-4-hydroxy-3,4,5,6-tetrahydro-2H-pyran-2-one]	–	–
–	28%	55%	79%	92%	–	–	–	COC(=O)C[C@H](O)C[C@H](O)/C=C/c1c(-c2ccc(F)cc2)c2ccccc2c(=O)n1C(C)C [Compound J, methyl (3R,5S)-(E)-3,5-dihydroxy-7-[4-(4-fluorophenyl)-2-isopropyl-1-oxo-1,2-dihydroisoquinolin-3-yl]hept-6-enoate]	–	13%
–	48%	72%	88%	96%	–	–	–	CC(C)c1c(/C=C/[C@@H]2C[C@@H](O)CC(=O)O2)n(-c2ccc(F)cc2)c(=O)c2ccccc12 [Compound I, (4R,6S)-(E)-4-hydroxy-6-[2-{2-(4-fluorophenyl)-4-isopropyl-1-oxo-1,2-dihydroisoquinolin-3-yl}ethen-1-yl]-3,4,5,6-tetrahydro-2H-pyran-2-one]	–	25%
91%	33%	31%	47%	61%	79%	–	–	CC(C)c1c(CC[C@@H]2C[C@@H](O)CC(=O)O2)n(-c2ccc(F)cc2)c(=O)c2ccccc12 [AH, (4R,6R)-6-[2-{2-(4-fluorophenyl)-4-isopropyl-1-oxo-1,2-dihydroisoquinolin-3-yl}ethyl]-4-hydroxy-3,4,5,6-tetrahydro-2H-pyran-2-one]	–	–
97%	14%	29%	58%	81%	93%	–	–	CC(C)n1c(/C=C/C2CC(O)CC(=O)O2)c(-c2ccc(F)cc2)c2ccccc2c1=O (centres unmarked) [Compound G, (E)-4-hydroxy-6-[2-{4-(4-fluorophenyl)-2-isopropyl-1-oxo-1,2-dihydroisoquinolin-3-yl}ethenyl]-3,4,5,6-tetrahydro-2H-pyran-2-one]	–	–
100%	49%	66%	85%	95%	99%	–	–	CC(C)n1c(/C=C/[C@@H]2C[C@@H](O)CC(=O)O2)c(-c2ccc(F)cc2)c2ccccc2c1=O [H, (4R,6S)-(E)-4-hydroxy-6-[2-{4-(4-fluorophenyl)-2-isopropyl-1-oxo-1,2-dihydroisoquinolin-3-yl}-ethen-1-yl]-3,4,5,6-tetrahydro-2H-pyran-2-one]	–	–
